Test system: THP1-Dual™ reporter cells
Assay: THP1-Dual cell reporter assay (IRF-Lucia luciferase reporter)
Assay type: cell-based, human
Settings: ADCs: drug linker conjugated to a targeted mAb, 48 h
Method: THP1-Dual™ Cell Reporter Assay
Potency of compounds and ADCs was evaluated using the THP1-Dual™ cells (InvivoGen PN: thpd-nfis [also referred to as THP1 dual reporter cells]), which contain an IRF-Lucia luciferase reporter. Cells were cultured in RPMI-1640 (Gibco) with 10% heat-inactivated fetal bovine serum, Pen-Strep (100 U/mL-100 μg/mL, Gibco), HEPES (10 mM, Gibco)), sodium pyruvate (1 mM, Gibco), MEM non-essential amino acids (1×, Gibco), GlutaMAX (1×, Gibco), and beta-mercaptoethanol (55 μM, Gibco). Cells were plated in a 96-well flat bottom tissue culture-treated clear polystyrene plate (Corning Costar #3596) at ˜100,000 cells per well in 200 μL with the indicated concentration of the compound or ADC. The supernatant was harvested at 24 hours (compounds) or 48 hours (ADC) post plating for the reporter assay, or as indicated. To measure Lucia reporter signal, 10 μL of the supernatant was combined with 40 μL of QUANTI-Luc™ Luminescence assay reagent (Invivogen PN: rep-qlc1) in a 96-well clear flat bottom tissue culture-treated black polystyrene plate (Corning Costar #3603) and read on a Perkin Elmer Envision plate reader.
STING agonist compounds were assessed for their ability to activate THP1-Dual™ reporter cells, a human monocytic cell line in which type I interferon (IRF) signaling can be monitored via a secreted luciferase reporter protein (Lucia). THP1-Dual™ cells were treated with increasing concentrations of the agonists for 24h, then supernatants were harvested and the Lucia reporter signal was quantified using QUANTI-Luc™ Luminescence assay reagent.

| SMILES | EC50 (ng/mL) |
| --- | --- |
| CCn1nc(C)cc1C(=O)Nc1nc2cc(C(=O)OC)cc(OC)c2n1C/C=C/Cn1c(NC(=O)c2cc(C)nn2CC)nc2cc(C(=O)OC)cc(OCCCN(C)C(=O)CCN3C(=O)C=CC3=O)c21 [Compound 66, methyl (E)-7-(3-(3-(2,5-dioxo-2,5-dihydro-1H-pyrrol-1-yl)-N-methylpropanamido)propoxy)-2-(1-ethyl-3-methyl-1H-pyrazole-5-carboxamido)-1-(4-(2-(1-ethyl-3-methyl-1H-pyrazole-5-carboxamido)-7-methoxy-5-(methoxycarbonyl)-1H-benzo[d]imidazol-1-yl)but-2-en-1-yl)-1H-benzo[d]imidazole-5-carboxylate] | >10,000 ng/mL |
| CCn1nc(C)cc1C(=O)Nc1nc2cc(C(=O)OC)cc(OC)c2n1C/C=C/Cn1c(NC(=O)c2cc(C)nn2CC)nc2cc(C(=O)OC)cc(OCCCN(C)C(=O)OCc3ccc(O[C@@H]4O[C@H](C(=O)O)[C@@H](O)[C@H](O)[C@H]4O)cc3NC(=O)CCNC(=O)CCN3C(=O)C=CC3=O)c21 [Compound 67] | >10,000 ng/mL |
| CCn1nc(C)cc1C(=O)Nc1nc2cc(C(=O)O)cc(OC)c2n1C/C=C/Cn1c(NC(=O)c2cc(C)nn2CC)nc2cc(C(=O)O)cc(OCCCN(C)C(=O)CCN3C(=O)C=CC3=O)c21 [Compound 68, (E)-1-(4-(5-carboxy-2-(1-ethyl-3-methyl-1H-pyrazole-5-carboxamido)-7-methoxy-1H-benzo[d]imidazol-1-yl)but-2-en-1-yl)-7-(3-(3-(2,5-dioxo-2,5-dihydro-1H-pyrrol-1-yl)-N-methylpropanamido)propoxy)-2-(1-ethyl-3-methyl-1H-pyrazole-5-carboxamido)-1H-benzo[d]imidazole-5-carboxylic acid] | >10,000 ng/mL |
| CCn1nc(C)cc1C(=O)Nc1nc2cc(C(=O)O)cc(OC)c2n1C/C=C/Cn1c(NC(=O)c2cc(C)nn2CC)nc2cc(C(=O)O)cc(OCCCN(C)C(=O)OCc3ccc(O[C@@H]4O[C@H](C(=O)O)[C@@H](O)[C@H](O)[C@H]4O)cc3NC(=O)CCNC(=O)CCN3C(=O)C=CC3=O)c21 [Compound 69] | >10,000 ng/mL |

Same assay, conditions: Homo sapiens, THP1-Dual; free compounds, 24 h, Lucia reporter signal; read-out: EC50

| SMILES | EC50 |
| --- | --- |
| COc1cc(C(N)=O)cc2nc(NC(=O)c3nc(C)cs3)n(C/C=C/Cn3c(NC(=O)c4nc(C)cs4)nc4cc(C(N)=O)cc(O)c43)c12 [Compound 38] | > 10 µM |
| COc1cc(C(N)=O)cc2nc(NC(=O)c3cc(C)on3)n(C/C=C/Cn3c(NC(=O)c4cc(C)on4)nc4cc(C(N)=O)cc(O)c43)c12 [Compound 39] | > 10 µM |
| COc1cc(C(N)=O)cc2nc(NC(=O)c3cc(C)sn3)n(C/C=C/Cn3c(NC(=O)c4cc(C)sn4)nc4cc(C(N)=O)cc(O)c43)c12 [Compound 40] | > 10 µM |
| CCn1cccc1C(=O)Nc1nc2cc(C(N)=O)cc(O)c2n1C/C=C/Cn1c(NC(=O)c2cccn2CC)nc2cc(C(N)=O)cc(OC)c21 [Compound 41] | > 10 µM |
| COc1cc(C(N)=O)cc2nc(NC(=O)c3cccnn3)n(C/C=C/Cn3c(NC(=O)c4cccnn4)nc4cc(C(N)=O)cc(O)c43)c12 [Compound 42] | > 10 µM |
| COc1cc(C(N)=O)cc2nc(NC(=O)c3ccnnc3)n(C/C=C/Cn3c(NC(=O)c4ccnnc4)nc4cc(C(N)=O)cc(O)c43)c12 [Compound 43] | > 10 µM |
| COc1cc(C(N)=O)cc2nc(NC(=O)c3ncccn3)n(C/C=C/Cn3c(NC(=O)c4ncccn4)nc4cc(C(N)=O)cc(O)c43)c12 [Compound 44] | > 10 µM |
| COc1cc(C(N)=O)cc2nc(NC(=O)c3ccncn3)n(C/C=C/Cn3c(NC(=O)c4ccncn4)nc4cc(C(N)=O)cc(O)c43)c12 [Compound 45] | > 10 µM |
| COc1cc(C(N)=O)cc2nc(NC(=O)c3cnccn3)n(C/C=C/Cn3c(NC(=O)c4cnccn4)nc4cc(C(N)=O)cc(O)c43)c12 [Compound 46] | > 10 µM |
| COc1cc(C(N)=O)cc2nc(NC(=O)Cn3cccn3)n(C/C=C/Cn3c(NC(=O)Cn4cccn4)nc4cc(C(N)=O)cc(O)c43)c12 [Compound 47] | > 10 µM |
| COc1cc(C(N)=O)cc2nc(NC(=O)Cn3nc(C)cc3C)n(C/C=C/Cn3c(NC(=O)Cn4nc(C)cc4C)nc4cc(C(N)=O)cc(O)c43)c12 [Compound 48] | > 10 µM |
| COc1cc(C(N)=O)cc2nc(NC(=O)C(C)n3cc(Cl)cn3)n(C/C=C/Cn3c(NC(=O)C(C)n4cc(Cl)cn4)nc4cc(C(N)=O)cc(O)c43)c12 (stereo not drawn) [Compound 49] | > 10 µM |
| COc1cc(C(N)=O)cc2nc(NC(=O)c3cc(Cl)nn3C)n(C/C=C/Cn3c(NC(=O)c4cc(Cl)nn4C)nc4cc(C(N)=O)cc(O)c43)c12 [Compound 50] | > 10 µM |
| COc1cc(C(=O)Nc2nc3cc(C(N)=O)cc(O)c3n2C/C=C/Cn2c(NC(=O)c3cc(OC)nn3C)nc3cc(C(N)=O)cc(OC)c32)n(C)n1 [Compound 51] | > 10 µM |
| CCn1nc(C(F)(F)F)cc1C(=O)Nc1nc2cc(C(N)=O)cc(O)c2n1C/C=C/Cn1c(NC(=O)c2cc(C(F)(F)F)nn2CC)nc2cc(C(N)=O)cc(OC)c21 [Compound 52] | > 10 µM |
| CCc1cc(C(=O)Nc2nc3cc(C(N)=O)cc(O)c3n2C/C=C/Cn2c(NC(=O)c3cc(CC)nn3C)nc3cc(C(N)=O)cc(OC)c32)n(C)n1 [Compound 53] | > 10 µM |

| SMILES | EC50 |
| --- | --- |
| COc1cc(C(N)=O)cc2nc(NC(=O)c3cc(C)nn3C)n(C/C=C/Cn3c(NC(=O)c4cc(C)nn4C)nc4cc(C(N)=O)cc(O)c43)c12 [Compound 54] | > 10 µM |
| COc1cc(C(N)=O)cc2nc(NC(=O)c3cc(C)n[nH]3)n(C/C=C/Cn3c(NC(=O)c4cc(C)n[nH]4)nc4cc(C(N)=O)cc(O)c43)c12 [Compound 55] | > 10 µM |
| COc1cc(C(N)=O)cc2nc(NC(=O)C3CCCC3)n(C/C=C/Cn3c(NC(=O)C4CCCC4)nc4cc(C(N)=O)cc(O)c43)c12 [Compound 56] | > 10 µM |
| COc1cc(C(N)=O)cc2nc(NC(=O)C3CCC3)n(C/C=C/Cn3c(NC(=O)C4CCC4)nc4cc(C(N)=O)cc(O)c43)c12 [Compound 57] | > 10 µM |
| COc1cc(C(N)=O)cc2nc(NC(=O)c3cc(C)no3)n(C/C=C/Cn3c(NC(=O)c4cc(C)no4)nc4cc(C(N)=O)cc(O)c43)c12 [Compound 58] | > 10 µM |
| COc1cc(C(N)=O)cc2nc(NC(=O)c3ccno3)n(C/C=C/Cn3c(NC(=O)c4ccno4)nc4cc(C(N)=O)cc(O)c43)c12 [Compound 59] | > 10 µM |
| COc1cc(C(N)=O)cc2nc(NC(=O)c3cc(C)ns3)n(C/C=C/Cn3c(NC(=O)c4cc(C)ns4)nc4cc(C(N)=O)cc(O)c43)c12 [Compound 60] | > 10 µM |
| CCn1nc(C)cc1C(=O)Nc1nc2cc(C(=O)OC)cc(O)c2n1C/C=C/Cn1c(NC(=O)c2cc(C)nn2CC)nc2cc(C(=O)OC)cc(OC)c21 [Compound 62, methyl (E)-2-(1-ethyl-3-methyl-1H-pyrazole-5-carboxamido)-1-(4-(2-(1-ethyl-3-methyl-1H-pyrazole-5-carboxamido)-7-hydroxy-5-(methoxycarbonyl)-1H-benzo[d]imidazol-1-yl)but-2-en-1-yl)-7-methoxy-1H-benzo[d]imidazole-5-carboxylate] | > 10 µM |
| CCn1nc(C)cc1C(=O)Nc1nc2cc(C(=O)O)cc(O)c2n1C/C=C/Cn1c(NC(=O)c2cc(C)nn2CC)nc2cc(C(=O)O)cc(OC)c21 [Compound 63, (E)-1-(4-(5-carboxy-2-(1-ethyl-3-methyl-1H-pyrazole-5-carboxamido)-7-hydroxy-1H-benzo[d]imidazol-1-yl)but-2-en-1-yl)-2-(1-ethyl-3-methyl-1H-pyrazole-5-carboxamido)-7-methoxy-1H-benzo[d]imidazole-5-carboxylic acid] | 2.51 µM |
| CCn1nc(C)cc1C(=O)Nc1nc2cc(C(=O)OC)cc(OC)c2n1C/C=C/Cn1c(NC(=O)c2cc(C)nn2CC)nc2cc(C(=O)OC)cc(OCCCNC)c21 [Compound 66b] | 1.16 µM |
| CCn1nc(C)cc1C(=O)Nc1nc2cc(C(N)=O)cc(O)c2n1C/C=C/Cn1c(NC(=O)c2cc(C)nn2CC)nc2cc(C(N)=O)cc(OCCCN3CCOCC3)c21 [Compound 70] | 0.0016 µM |
| CCn1nc(C)cc1C(=O)Nc1nc2cc(C(N)=O)cc(OC)c2n1C/C=C/Cn1c(NC(=O)c2cc(C)nn2CC)nc2cc(C(N)=O)cc(OCCCN(C)C(=O)[C@H](CC(=O)O)NC(=O)CCN3C(=O)CC(SC[C@H](N)C(=O)O)C3=O)c21 (stereo partly drawn) [Compound 71] | 0.0701 µM |
| CCn1nc(C)cc1C(=O)Nc1nc2cc(C(N)=O)cc(OC)c2n1C/C=C/Cn1c(NC(=O)c2cc(C)nn2CC)nc2cc(C(N)=O)cc(OCCCN(C)C(=O)CNC(=O)CCN3C(=O)CC(SC[C@H](N)C(=O)O)C3=O)c21 (stereo partly drawn) [Compound 73] | 0.216 µM |
| CCn1nc(C)cc1C(=O)Nc1nc2cc(C(N)=O)cc(OC)c2n1C/C=C/Cn1c(NC(=O)c2cc(C)nn2CC)nc2cc(C(N)=O)cc(OCCCN(C)C(=O)[C@H](C)NC(=O)CCN3C(=O)CC(SC[C@H](N)C(=O)O)C3=O)c21 (stereo partly drawn) [Compound 74] | 0.036 µM |
| CCn1nc(C)cc1C(=O)Nc1nc2cc(C(N)=O)cc(OC)c2n1C/C=C/Cn1c(NC(=O)c2cc(C)nn2CC)nc2cc(C(N)=O)cc(OCCCN(C)C(=O)[C@H](CO)NC(=O)CCN3C(=O)CC(SC[C@H](N)C(=O)O)C3=O)c21 (stereo partly drawn) [Compound 75] | 0.0577 µM |
| CCn1nc(C)cc1C(=O)Nc1nc2cc(C(N)=O)cc(OC)c2n1C/C=C/Cn1c(NC(=O)c2cc(C)nn2CC)nc2cc(C(N)=O)cc(OCCCN(C)C(=O)[C@H](COC)NC(=O)CCN3C(=O)CC(SC[C@H](N)C(=O)O)C3=O)c21 (stereo partly drawn) [Compound 76] | 0.0588 µM |

From US20240123079A1 (Seagen Inc., priority 2021, published 2024)
